Data on 44 compounds can be found in patent US7829063B2, “Development of molecular imaging probes for carbonic anhydrase-IX using click chemistry” (Siemens Medical Solutions USA, Inc., priority 2007, dated 2010).

The first test deals with T1, CA-IX (Homo sapiens, UniProt Q16790).
T1 construct: His tag (C); purchased R&D Systems Inc. 2188-CA; host or cells: mouse myeloma cell line NS0
In words: Binding affinity (Kd) determination for CA-IX inhibitors, DNSA fluorescence competition assay, Scatchard plots. The following applies: Table 3. As for the experimental part: General. […] The human red blood cells were obtained from Research Blood Components, LLC. All absorbance measurements were performed on a SPECTRA MAX M2 plate reader at 25° C. The LC/MS analyses were performed on an Agilent 1100 series LC/MSD (SL) using a 30×2.1 mm Zorbax C8 column with a Phenomenex C18 pre-column. Compound detection was accomplished by electrospray mass spectroscopy in positive selected ion mode (LC/MS-SIM). The elution solvents were acetonitrile and water, contained 0.05% TFA. Nuclear magnetic resonance (NMR) spectra were obtained on a Bruker AMX 300 MHz spectrometer or a Varian 400. 19F NMR spectra were recorded on a Bruker AMX 282.35 MHz or a Varian 400 spectrometer. The mass spectra were recorded on an Agilent 1100 series LC/MSD with electrospray mass spectroscopic detection. Flash column chromatography was performed on Merck silica gel (40-63 μm) using the solvent system indicated. The radiochemical and chemical purities were analyzed by RP-HPLC.
General Procedure of Binding Affinity (Ka) Determination for CA-IX Inhibitors
The assay was based on the observation that the only fluorescence signal detected at 460 nm upon excitation at 290 nm, an absorption […] for DNSA, was that of the DNSA.CA complex. […] The latter were developed for each test compound using mass balance for calculating the concentration of CA bound to DNSA [DNSA.CA], bound to the non-fluorescent sample [CA.Inh] and free CA [CA] in solution. The Kd values were determined from Scatchard plots using the equation below as described by Whitesides et al. [CA.Inh]/[CA]tot.[Inh]=K11^inh−K11^inh{[CA.Inh]+[CA.DNSA]}/([CA]tot)
The terms [CA.DNSA], [CA.Inh], and free CA were calculated using the mass balance based on the known values for the dissociation constant of CA.DNSA and the total concentration of CA in each reaction.
`CC(C)[C@@H](C(=O)N[C@@H](CC(=O)O)c1ccc(C(F)(F)F)cc1)n1cc(COc2ccc3nc(S(N)(=O)=O)sc3c2)nn1` [DHK2-133] yielded a Kd of 1.7 nM.

Compound `NS(=O)(=O)c1nc2ccc(OCc3cn([C@@H](Cc4ccc(OCCF)cc4)C(=O)N[C@@H](Cc4ccc(C(F)(F)F)cc4)C(=O)O)nn3)cc2s1` [DHK2-134, (S)-2-((S)-3-(4-(2-fluoroethoxy)phenyl)-2-(4-((2-sulfamoylbenzo[d]thiazol-6-yloxy)methyl)-1H-1,2,3-triazol-1-yl)propanamido)-3-(4-(trifluoromethyl)phenyl)propanoic acid] displayed a Kd of 0.5 nM. On the same count and under the same terms, with `Cc1cc[n+](C)c(NC(=O)[C@H](Cc2ccccc2)n2cc(-c3ccc(S(N)(=O)=O)cc3)nn2)c1` [DHK160] the figure was 20 nM. Compound `CC(C)[C@@H](C(=O)N[C@@H](Cc1ccc(OCCO)cc1)C(=O)O)n1cc(COc2ccc3nc(S(N)(=O)=O)sc3c2)nn1` [VM4021, (S)-3-(4-(2-hydroxyethoxy)phenyl)-2-((S)-3-methyl-2-(4-((2-sulfamoylbenzo[d]thiazol-6-yloxy)methyl)-1H-1,2,3-triazol-1-yl)butanamido)propanoic acid] yielded a Kd of 3.3 nM. As for `CCOC(=O)C1CCN(C(=O)[C@H](C(C)C)n2cc(COc3ccc4nc(S(N)(=O)=O)sc4c3)nn2)CC1` [DHK2-41], the Kd was 5 nM. As for `C[N+](C)(C)C[C@H](O)CC(=O)NCCOc1cccc(COCC(NC(=O)Cn2cc(COc3ccc4nc(S(N)(=O)=O)sc4c3)nn2)C(=O)O)c1` (some centres unmarked) [DHK3-156], the Kd came out at 10 nM. The compound `CC(C)[C@@H](C(=O)N[C@H](Cc1ccc(C(F)(F)F)cc1)C(=O)O)n1cc(COc2ccc3nc(S(N)(=O)=O)sc3c2)nn1` [DHK2-160-F2] displayed a Kd of 5 nM.

`CC(C)[C@H](C(=O)N[C@H](Cc1ccc(OCC(O)CF)cc1)C(=O)O)n1cc(COc2ccc3nc(S(N)(=O)=O)sc3c2)nn1` (single isomer, unassigned) [VM4047b] displayed a Kd of 11 nM. In turn, `NS(=O)(=O)c1nc2ccc(OCc3cn([C@@H](Cc4ccc(OCCF)cc4)C(=O)NCc4ccc(C(F)(F)F)cc4)nn3)cc2s1` [DHK2-119] returned an equilibrium dissociation constant (Kd) of 3.4 nM. The compound `NS(=O)(=O)c1nc2ccc(OCc3cn(C(Cc4ccc(F)cc4)C(=O)NC(COCc4cccc(OCCO)c4)C(=O)O)nn3)cc2s1` (single isomer, unassigned) [VM3-167B] gave a Kd of 10 nM. With `COC(=O)[C@H](Cc1ccc(C(F)(F)F)cc1)NC(=O)[C@H](C(C)C)n1cc(COc2ccc3nc(S(N)(=O)=O)sc3c2)nn1` [DHK2-129], binding was put at a Kd of 1.2 nM.

Take `NS(=O)(=O)c1nc2ccc(OCc3cn([C@@H](Cc4ccc(OCCF)cc4)C(=O)N[C@H](Cc4ccc(C(F)(F)F)cc4)C(=O)O)nn3)cc2s1` [DHK2-161]: binding was put at a Kd of 5 nM. `NS(=O)(=O)c1nc2ccc(OCc3cn(CC(=O)N[C@H](CSCc4cccc(OCCn5cc(CCCF)nn5)c4)C(=O)O)nn3)cc2s1` [BW2-27, (S)-3-(3-(2-(4-(3-fluoropropyl)-1H-1,2,3-triazol-1-yl)ethoxy)benzylthio)-2-(2-(4-((2-sulfamoylbenzo[d]thiazol-6-yloxy)methyl)-1H-1,2,3-triazol-1-yl)acetamido)propanoic acid] showed a Kd of 10 nM. The compound `NCC1OC(C(=O)NCCOc2cccc(COCC(NC(=O)Cn3cc(COc4ccc5nc(S(N)(=O)=O)sc5c4)nn3)C(=O)O)c2)C(O)C(O)C1O` (centres unmarked) [DHK3-155] showed a Kd of 11 nM. In turn, `CCOC(=O)C1CCN(C(=O)[C@H](Cc2ccc(OCCF)cc2)n2cc(COc3ccc4nc(S(N)(=O)=O)sc4c3)nn2)CC1` [DHK2-118] came in with a Kd of 5 nM. `COC(=O)[C@H](C[S+]([O-])Cc1cccc(OCCF)c1)NC(=O)Cn1cc(COc2ccc3sc(S(N)(=O)=O)nc3c2)nn1` (stereo partly drawn) [VM2-126, ((2S)-methyl 3-(3-(2-fluoroethoxy)benzylsulfinyl)-2-(2-(4-((2-sulfamoylbenzo[d]thiazol-6-yloxy)methyl)-1H-1,2,3-triazol-1-yl)acetamido) propanoate] gave a Kd of 10 nM.

In turn, `NS(=O)(=O)c1nc2cc(OCc3cn(CC(=O)N[C@@H](CSCc4cccc(OCCF)c4)C(=O)O)nn3)ccc2s1` [VM2-41] registered an equilibrium dissociation constant (Kd) of 5 nM. Regarding `NS(=O)(=O)c1nc2ccc(OCc3cn(CC(=O)NC(COCc4cccc(OCCNC(=O)CN(CCO)CCO)c4)C(=O)O)nn3)cc2s1` (centres unmarked) [DHK3-158], the Kd worked out at 14 nM.

Another test has as its target T1, CA-IX. In words: CA-IX combinatorial library screening, competitive fluorescence-based assay with dansylamide (DNSA). It is filed as binding. The note with it: 1 h; Table 1, Libraries 1-3; sample concentrations 100 nM and 1000 nM, DNSA 200 μM; screening at 1 μM; read-out: In Vitro Binding Assay (Library Screening). The essentials:
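Recombinant His-tagged CA-IX (NS0-expressed) in phosphate buffer pH 7.4 with test compound at 100 nM or 1000 nM; competitive displacement started with 200 μM dansylamide (stock concentration). After 1 h at 25 °C, fluorescence read at 460 nm (excitation 290 nm).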
As for `CCCCCCCCCCC(C(=O)O)n1cc(CNC(=O)c2ccc(S(N)(=O)=O)cc2)nn1` (centres unmarked) [DHK110], the inhibition at 1 µM was less than 40%.

On to `COC(=O)[C@H](CSCc1ccccc1)NC(=O)Cn1cc(-c2ccc(S(N)(=O)=O)cc2)nn1` [DHK4], for which the inhibition at 1 µM is less than 40%. With `NS(=O)(=O)c1ccc(C(=O)NCc2cn(CCN3CCOCC3)nn2)cc1` [DHK34], the inhibition at 1 µM was less than 40%. With `NS(=O)(=O)c1ccc(C(=O)NCc2cn(C3CCN(S(=O)(=O)/C=C/c4ccccc4)CC3)nn2)cc1` [DHK96], the inhibition at 1 µM was less than 40%.

On to `CC(C)(C)c1cc(C(=O)Cn2cc(CNC(=O)c3ccc(S(N)(=O)=O)cc3)nn2)cc(C(C)(C)C)c1O` [DHK59], for which the inhibition at 1 µM was less than 40%. As for `COC(=O)C(Cc1ccc(C(=O)O)cc1)n1cc(CNC(=O)c2ccc(S(N)(=O)=O)cc2)nn1` (centres unmarked) [DHK56], the inhibition at 1 µM is less than 40%. As for `NS(=O)(=O)c1nc2ccc(OCc3cn(-c4ccnc5cc(Cl)ccc45)nn3)cc2s1` [DHK136], the inhibition at 1 µM was less than 40%. Still for that read-out and setting: the value for `NS(=O)(=O)c1ccc(C(=O)NCc2cn(-c3cccc(C(=O)NN4CCOCC4)c3)nn2)cc1` [DHK39] was less than 40%; that for `NS(=O)(=O)c1ccc(-c2cn(CC(=O)n3ncc4ccccc43)nn2)cc1` [DHK65] was less than 40%; that for `CC(C)C(C(=O)Nc1ccc(-c2ccccc2)cc1)n1cc(COc2ccc3nc(S(N)(=O)=O)sc3c2)nn1` (centres unmarked) [DHK134] was less than 40%.

With `NS(=O)(=O)c1nc2ccc(OCc3cn(C4CCN(S(=O)(=O)/C=C/c5ccccc5)CC4)nn3)cc2s1` [DHK143], the inhibition at 1 µM is less than 40%.

Still in this test, the particulars now being: 1 h; Table 2, Libraries 4-7; sample concentrations 100 nM and 1000 nM, DNSA 200 μM; screening at 1 μM; read-out: In Vitro Binding Assay (Library (Screening)).
Regarding `NS(=O)(=O)c1ccc(-c2cn([C@@H](Cc3ccccc3)C(=O)NCC3CC3)nn2)cc1` [DHK-2-13], the inhibition at 1 µM is less than 40%.

Turning to `CC(C)[C@@H](C(=O)NCC1CC1)n1cc(-c2ccc(S(N)(=O)=O)cc2)nn1` [DHK180], the inhibition at 1 µM was less than 40%.

Turning to `CC(C)[C@@H](C(=O)N(C)Cc1ccccc1)n1cc(COc2ccc3nc(S(N)(=O)=O)sc3c2)nn1` [DHK-2-26], the inhibition at 1 µM is less than 40%. Take `NS(=O)(=O)c1ccc(-c2cn([C@@H](Cc3ccccc3)C(=O)NCCCO)nn2)cc1` [DHK-2-14]: the inhibition at 1 µM is less than 40%.

For `COC(=O)[C@H](C)NC(=O)[C@H](C(C)C)n1cc(-c2ccc(S(N)(=O)=O)cc2)nn1` [DHK177], the inhibition at 1 µM was less than 40%. On the same count and under the same terms, with `CCOC(=O)C1CCN(C(=O)[C@H](C(C)C)n2cc(-c3ccc(S(N)(=O)=O)cc3)nn2)CC1` [DHK184] the figure was less than 40%; with `CN(Cc1ccccc1)C(=O)[C@H](Cc1ccccc1)n1cc(-c2ccc(S(N)(=O)=O)cc2)nn1` [DHK-2-2], less than 40%; with `NS(=O)(=O)c1nc2ccc(OCc3cn([C@@H](Cc4ccccc4)C(=O)NCc4ccccn4)nn3)cc2s1` [DHK-2-62], less than 40%. As for `NS(=O)(=O)c1ccc(-c2cn([C@@H](Cc3ccccc3)C(=O)N3CCN(c4ncccn4)CC3)nn2)cc1` [DHK-2-4], the inhibition at 1 µM is less than 40%. Same read-out and setting: the value for `CC(C)[C@@H](C(=O)N(C)Cc1ccccc1)n1cc(-c2ccc(S(N)(=O)=O)cc2)nn1` [DHK166] was less than 40%; that for `NS(=O)(=O)c1nc2ccc(OCc3cn([C@@H](Cc4ccccc4)C(=O)NCCCO)nn3)cc2s1` [DHK-2-65] was less than 40%. With `NS(=O)(=O)c1ccc(-c2cn([C@@H](Cc3ccccc3)C(=O)N3CCC[C@@H]3CO)nn2)cc1` [DHK-2-6], the inhibition at 1 µM was less than 40%.

`CCOC(=O)CCN(Cc1ccco1)C(=O)[C@H](Cc1ccccc1)n1cc(COc2ccc3nc(S(N)(=O)=O)sc3c2)nn1` [DHK-2-67]: the inhibition at 1 µM is less than 40%. Still for that read-out and setting: with `CCOC(=O)C(Cc1ccccc1)NC(=O)[C@H](Cc1ccccc1)n1cc(COc2ccc3nc(S(N)(=O)=O)sc3c2)nn1` (some centres unmarked) [DHK-2-59] the figure was less than 40%.

The same test, now with this note: Table 2, Libraries 4-7; sample concentrations 100 nM and 1000 nM, DNSA 200 μM; screening at 1 μM.
`CCOC(=O)C1CCN(C(=O)[C@H](C(C)C)n2cc(COc3ccc4nc(S(N)(=O)=O)sc4c3)nn2)CC1` [DHK-2-41]: the “In Vitro Binding Assay (Library Screening)” value is recorded as “√”.

The Kd is the concentration at which binding is half-saturated. Read a low Kd as a tighter complex.
